The values that follow come from US8809321B2, “Diaryl ether linked pyrrolo [2,1-c][1,4] benzodiazepine hybrids and process for the preparation thereof” (Council of Scientific and Industrial Research, priority 2011, dated 2014).

Like-named read-outs stand apart in the source and are kept apart here.

Assay [1] relates to duplex-form calf thymus DNA (CT-DNA). Description: Thermal denaturation studies with calf thymus DNA (DNA binding affinity). The following applies: [PBD]:[DNA] molar ratio 1:5, CT-DNA 100 μM, ligand 20 μM, sodium phosphate buffer pH 7.00; for (ΔTm ° C.) after incubation at 37° C. for 0 h: 0 h at 37° C.; for (ΔTm ° C.) after incubation at 37° C. for 18 h: 18 h at 37° C. On the procedure:
DNA Binding Affinity of Diaryl Ether Linked PBD Hybrids: Compounds have been subjected to thermal denaturation studies with duplex-form calf thymus DNA (CT-DNA) using a modification of a reported procedure (Newman, M. S. Carcinog-compr. Surv. 1976, 1, 203; ([…].; Loy, M.; Hoffman, Carcinog-compr. […] The DNA-PBD solutions have been incubated at 37° C. for 0 and 18 h prior to analysis. […] DNA helix→coil transition temperatures (Tm) have been obtained from the maxima in the d(A260)/dT derivative plots. […] The DNA binding activity for these novel C8-linked diaryl ether PBD hybrids has been examined by thermal denaturation studies using calf thymus (CT) DNA. […] The data for the compounds are included in Table 1 for comparison.

The subject of assay [2] is ZR-751 breast cancer cell line. Description: MTT assay, 48 h continuous drug exposure, ZR-751. Format: cell-based, human. The following applies: read-out: GI50 ZR-751. On the procedure:
(§1) For each compound, dose response curves for each cell line were measured at a minimum of five concentrations at 10 fold dilutions. A protocol of 48 h continuous drug exposure was used and a MTT assay was used to estimate cell viability or growth. The percent of cell growth (GI50) compared with the control was calculated.

The subject of assay [3] is A549 lung cancer cell line. The assay is described as follows: MTT assay, 48 h continuous drug exposure, A549. Format: cell-based, human. On the procedure:
(§2) Some of the C8-linked diaryl ether-PBD hybrids have been tested against eleven human tumour cell lines derived from seven cancer types (lung cancer, colon cancer, cervix, ovarian cancer, oral cancer, prostate cancer and breast cancer) as per Tata protocol as shown in Table 2. For each compound, dose response curves for each cell line were measured at a minimum of five concentrations at 10 fold dilutions. A protocol of 48 h continuous drug exposure was used and a MTT assay was used to estimate cell viability or growth. The percent of cell growth (GI50) compared with the control was calculated. Some of the compounds have been evaluated for their in vitro cytotoxicity in eleven cell lines from seven human cancer types. The results are expressed as GI50 determined relative to that of untreated control cells (Table-2).

The subject of assay [4] is A2780 ovarian cancer cell line. Description: MTT assay, 48 h continuous drug exposure, A2780. Format: cell-based, human. The following applies: read-out: GI50 A2780. On the procedure:
as §1

Assay [5] deals with Hop62 lung cancer cell line. The assay is described as follows: MTT assay, 48 h continuous drug exposure, Hop62. Format: cell-based, human. Conditions: read-out: GI50 Hop62. On the procedure: as §1
A general note: Formazan colour is commonly taken as a measure of viable cells.

Assay [6] relates to SiHa Cervix cancer cell line. The assay is described as follows: MTT assay, 48 h continuous drug exposure, SiHa. Format: cell-based, human. Conditions: read-out: GI50 SiHa. On the procedure: as §1
Assay [7] has as its system Gurav oral cancer cell line. Description: MTT assay, 48 h continuous drug exposure, Gurav. The following applies: read-out: GI50 Gurav. Format: cell-based, human. On the procedure:
as §1

Assay [8] concerns MCF7 breast cancer cell line. The assay is described as follows: MTT assay, 48 h continuous drug exposure, MCF7. Format: cell-based, human. On the procedure: as §2
The test system of assay [9] is Colo205 colon cancer cell line. Description: MTT assay, 48 h continuous drug exposure, Colo205. Format: cell-based, human. On the procedure: as §2
In assay [10] the test system is DWD oral cancer cell line. The assay is described as follows: MTT assay, 48 h continuous drug exposure, DWD. Format: cell-based, human. Conditions: read-out: GI50 DWD. On the procedure:
as §1

The subject of assay [11] is PC3 prostrate cancer cell line. The assay is described as follows: MTT assay, 48 h continuous drug exposure, PC3. Format: cell-based, human. Conditions: read-out: GI50 PC3. On the procedure: as §1
[12] abbreviates: breast cancer cell line, 48 h exposure, MTT.
[13] abbreviates: ovarian cancer cell line, 48 h exposure, MTT.
Where [14] appears, read: lung cancer cell line, 48 h exposure, MTT.
[15] abbreviates: Cervix cancer cell line, 48 h exposure, MTT.
[16] abbreviates: oral cancer cell line, 48 h exposure, MTT.
Where [17] appears, read: prostrate cancer cell line, 48 h exposure, MTT.

What is called GI50 is the concentration giving 50% growth inhibition. Consider `COc1ccc(Oc2ccc(C(=O)N3CCN(CCCCCOc4cc5c(cc4OC)C(=O)N4CCC[C@H]4C=N5)CC3)cc2N)cc1OC` [23c], for which the “(ΔTm ° C.) after incubation at 37° C. for 0 h” value in assay [1] amounted to 3.6 °C. In assay [1], the “(ΔTm ° C.) after incubation at 37° C. for 18 h” value is 4.5 °C. In addition, the GI50 in assay [2] (setting [12]) stood at 190 nM; in assay [3] (48 h exposure) it was 180 nM; in [4] (setting [13]) it was 180 nM; in assay [5] (setting [14]) it was 2280 nM; in [6] (setting [15]) it was 2470 nM; in assay [7] (setting [16]), 120 nM. Besides, the GI50 in [8] (48 h exposure) was determined as 150 nM; in assay [9] (48 h exposure), 160 nM; in assay [10] (setting [16]), 150 nM; in assay [11] (setting [17]), 170 nM.
In the case of `COc1cc2c(cc1OCCCCCN1CCN(C(=O)c3ccc(Oc4cc(OC)c(OC)c(OC)c4)c(N)c3)CC1)N=C[C@@H]1CCCN1C2=O` [24c], the “(ΔTm ° C.) after incubation at 37° C. for 0 h” value in [1] is 4.5 °C. Besides, the “(ΔTm ° C.) after incubation at 37° C. for 18 h” value in assay [1] came out at 6.0 °C. The GI50 in assay [2] (setting [12]) came to 180 nM; in assay [3] (48 h exposure), 170 nM; in [4] (setting [13]), 2000 nM; in assay [5] (setting [14]), 2260 nM; in assay [6] (setting [15]) it was 2500 nM; in assay [7] (setting [16]), 150 nM. Also, the GI50 in assay [8] (48 h exposure) is 170 nM; in assay [9] (48 h exposure), 540 nM; in assay [10] (setting [16]), 160 nM; in [11] (setting [17]), 170 nM.
In the case of `COc1ccc(Oc2ccc(C(=O)N3CCN(CCCCCOc4cc5c(cc4OC)C(=O)N4CCC[C@H]4C=N5)CC3)cc2[N+](=O)[O-])cc1` [31c], the “(ΔTm ° C.) after incubation at 37° C. for 0 h” value in assay [1] stood at 3.9 °C. Moreover, in [1], the “(ΔTm ° C.) after incubation at 37° C. for 18 h” value worked out at 5.6 °C. The GI50 was found to be 180 nM in [2] (setting [12]); 170 nM in assay [3] (48 h exposure); 190 nM in assay [4] (setting [13]); 190 nM in assay [5] (setting [14]); 3880 nM in [6] (setting [15]); 160 nM in assay [7] (setting [16]). In addition, the GI50 in assay [8] (48 h exposure) worked out at 180 nM; in assay [9] (48 h exposure), 170 nM; in assay [10] (setting [16]) it was 180 nM; in assay [11] (setting [17]), 170 nM.
As for `COc1ccc(Oc2ccc(C(=O)N3CCN(CCCCCOc4cc5c(cc4OC)C(=O)N4CCC[C@H]4C=N5)CC3)cc2[N+](=O)[O-])cc1OC` [32c], in assay [1], the “(ΔTm ° C.) after incubation at 37° C. for 0 h” value worked out at 4.8 °C. For the same molecule, the “(ΔTm ° C.) after incubation at 37° C. for 18 h” value in assay [1] turned out to be 7.3 °C. For the same molecule, the GI50 in assay [2] (setting [12]) was 150 nM; in assay [3] (48 h exposure) it was 140 nM; in assay [4] (setting [13]) it was 150 nM; in assay [5] (setting [14]) it was 180 nM; in assay [6] (setting [15]), 1850 nM; in assay [7] (setting [16]), 120 nM. In addition, the GI50 is 170 nM in assay [8] (48 h exposure), 160 nM in assay [9] (48 h exposure), 140 nM in [10] (setting [16]) and 190 nM in [11] (setting [17]).
Consider `COc1cc2c(cc1OCCCCCN1CCN(C(=O)c3ccc(Oc4cc(OC)c(OC)c(OC)c4)c([N+](=O)[O-])c3)CC1)N=C[C@@H]1CCCN1C2=O` [33c], for which the “(ΔTm ° C.) after incubation at 37° C. for 0 h” value in [1] stood at 4.2 °C. Further, the “(ΔTm ° C.) after incubation at 37° C. for 18 h” value in assay [1] is 6.1 °C. Besides, the GI50 in assay [2] (setting [12]) was 2200 nM; in assay [3] (48 h exposure), 2240 nM; in assay [4] (setting [13]) it was 2300 nM; in assay [5] (setting [14]) it was 2670 nM; in [6] (setting [15]), 2250 nM; in [7] (setting [16]), 170 nM. For the same molecule, the GI50 in assay [8] (48 h exposure) was found to be 180 nM; in assay [9] (48 h exposure), 150 nM; in assay [10] (setting [16]), 2100 nM; in [11] (setting [17]), 2150 nM.
Regarding `C1=CC2=CN=c3ccccc3=CN2C1` [DC-81, pyrrolo[2,1-c][1,4]benzodiazepine, reference compound], the “(ΔTm ° C.) after incubation at 37° C. for 0 h” value in assay [1] was 0.3 °C. The “(ΔTm ° C.) after incubation at 37° C. for 18 h” value in assay [1] stood at 0.7 °C. Besides, the GI50 worked out at 160 nM in [2] (Homo sapiens, ZR-75-1, 48 h); 160 nM in assay [3] (Homo sapiens, A549, 48 h exposure); 150 nM in assay [4] (Homo sapiens, A2780, 48 h); 170 nM in [5] (Homo sapiens, HOP-62, 48 h); 140 nM in assay [6] (Homo sapiens, SiHa, 48 h); 1490 nM in assay [7] (Homo sapiens, Gurav, 48 h). Moreover, the GI50 amounted to 170 nM in [8] (Homo sapiens, MCF7, 48 h exposure); 110 nM in [9] (Homo sapiens, COLO 205, 48 h exposure); 200 nM in assay [10] (Homo sapiens, 48 h); 170 nM in assay [11] (Homo sapiens, 48 h).
